Values joined by “and” are separate entries in the source; they are usually repeats but may differ in a detail not shown here. Equal values may be shown once. Results filed as inconclusive are left out.
System: CD8F1 mice, subcutaneous mammary adenocarcinoma, T/C%
Experiment: NCI In Vivo Anticancer Drug Screen. Data for tumor model Mammary Adenocarcinoma CD8F1 (subcutaneous) in CD8F1
Conditions: higher = larger tumour
Description: The antitumor activity of compounds was measured in mice bearing transplantable tumors. Survival or tumor size were measured and the results are expressed as the measurement made in the treated group (T) divided by the measurement made in the vehicle treated control group (C). The tumor model used in this assay is Mammary Adenocarcinoma CD8F1 (subcutaneous) in CD8F1

[1] = endpoint: median tumor weight (est.), dose: 12.5 mg/kg/injection, schedule: Q07DX005 (ip), vehicle: Klucel (hydroxypropylcellulose) (HPC)
[2] = endpoint: median tumor weight (est.), dose: 400.0 mg/kg/injection, schedule: Q07DX005 (ip), vehicle: Klucel (hydroxypropylcellulose) (HPC)
[3] = endpoint: median tumor weight change, dose: 62.0 mg/kg/injection, schedule: Q01DX001 (ip), vehicle: Klucel (hydroxypropylcellulose) (HPC)
[4] = endpoint: median tumor weight change, dose: 250.0 mg/kg/injection, schedule: Q01DX001 (ip), vehicle: Klucel (hydroxypropylcellulose) (HPC)
[5] = endpoint: median tumor weight change, dose: 125.0 mg/kg/injection, schedule: Q01DX001 (ip), vehicle: Klucel (hydroxypropylcellulose) (HPC)
[6] = endpoint: median tumor weight change, dose: 500.0 mg/kg/injection, schedule: Q01DX001 (ip), vehicle: Klucel (hydroxypropylcellulose) (HPC)

Structure (SMILES): COc1cccc2c1C(=O)c1c(O)c3c(c(O)c1C2=O)CC(O)(/C(C)=N/NC(=O)CCC(=O)N/N=C(\C)C1(O)Cc2c(O)c4c(c(O)c2C(OC2CC(N)C(O)C(C)O2)C1)C(=O)c1c(OC)cccc1C4=O)CC3OC1CC(N)C(O)C(C)O1 (stereo unspecified)
- T/C (endpoint: median tumor weight (est.), dose: 1.5 mg/kg/injection, schedule: Q07DX005 (ip), vehicle: water): 167 % of control
- T/C (endpoint: median tumor weight (est.), dose: 6.0 mg/kg/injection, schedule: Q07DX005 (ip), vehicle: water): 45 % of control
- T/C (endpoint: median tumor weight (est.), dose: 12.0 mg/kg/injection, schedule: Q07DX005 (ip), vehicle: water): 17 % of control and 40 % of control
- T/C (endpoint: median tumor weight (est.), dose: 24.0 mg/kg/injection, schedule: Q07DX005 (ip), vehicle: water): 7 % of control

Structure (SMILES): Nc1ccccc1N
- T/C [1]: 117 % of control
- T/C (endpoint: median tumor weight (est.), dose: 25.0 mg/kg/injection, schedule: Q07DX005 (ip), vehicle: Klucel (hydroxypropylcellulose) (HPC)): 155 % of control
- T/C (endpoint: median tumor weight (est.), dose: 100.0 mg/kg/injection, schedule: Q07DX005 (ip), vehicle: Klucel (hydroxypropylcellulose) (HPC)): 122 % of control
- T/C [2]: 35 % of control

Structure (SMILES): C=C(NC(=O)C(=C)NC(=O)c1csc(C2=NC3c4csc(n4)C4NC(=O)c5csc(n5)C(C(C)(O)C(C)O)NC(=O)C5CSC(=N5)/C(=C/C)NC(=O)C(C(C)O)NC(=O)c5csc(n5)C3(CC2)NC(=O)C(C)NC(=O)C(=C)NC(=O)C(C)NC(=O)C(C(C)CC)NC2C=Cc3c(C(C)O)cc(nc3C2O)C(=O)OC4C)n1)C(N)=O (stereo unspecified)
- T/C (endpoint: median tumor weight (est.), dose: 6.25 mg/kg/injection, schedule: Q07DX005 (ip), vehicle: Klucel (hydroxypropylcellulose) (HPC)): 72 % of control
- T/C [1]: 64 % of control and 70 % of control
- T/C (endpoint: median tumor weight (est.), dose: 200.0 mg/kg/injection, schedule: Q07DX005 (ip), vehicle: Klucel (hydroxypropylcellulose) (HPC)): 83 % of control and 103 % of control
- T/C [2]: 90 % of control

Structure (SMILES): Cc1cc(=NO)cc(C)n1O
- T/C (endpoint: median tumor weight change, dose: 125.0 mg/kg/injection, schedule: Q01DX001 (ip), vehicle: distilled water + alcohol): 52 % of control and 77 % of control
- T/C (endpoint: median tumor weight change, dose: 250.0 mg/kg/injection, schedule: Q01DX001 (ip), vehicle: distilled water + alcohol): 78 % of control and 80 % of control
- T/C (endpoint: median tumor weight change, dose: 500.0 mg/kg/injection, schedule: Q01DX001 (ip), vehicle: distilled water + alcohol): 69 % of control and 78 % of control

Structure (SMILES): CC1C(=O)c2cc3c(cc2CCN(C)Cc2c1ccc1c2OCO1)OCO3 (stereo unspecified)
- T/C (endpoint: median tumor weight change, dose: 12.5 mg/kg/injection, schedule: Q01DX001 (ip), vehicle: saline with Tween-80): 65 % of control
- T/C (endpoint: median tumor weight change, dose: 25.0 mg/kg/injection, schedule: Q01DX001 (ip), vehicle: saline with Tween-80): 64 % of control

Structure (SMILES): C[C@H](N)C(=O)N[C@@H]1[C@H]2C(=C(O)C[C@@H](O)[C@@H]2O)C(=O)O[C@]1(C)C(Cl)Cl
- T/C (endpoint: median tumor weight change, dose: 1.87 mg/kg/injection, schedule: Q01DX001 (ip), vehicle: Klucel (hydroxypropylcellulose) (HPC)): 101 % of control
- T/C (endpoint: median tumor weight change, dose: 3.75 mg/kg/injection, schedule: Q01DX001 (ip), vehicle: Klucel (hydroxypropylcellulose) (HPC)): 101 % of control

Structure (SMILES): Cc1ccc2c(c1)C(=O)N(CC[P+](c1ccccc1)(c1ccccc1)c1ccccc1)C2=O
- T/C (endpoint: mean tumor weight, dose: 1.56 mg/kg/injection, schedule: Q07DX006 (ip), vehicle: water): 90 % of control
- T/C (endpoint: mean tumor weight, dose: 6.25 mg/kg/injection, schedule: Q07DX006 (ip), vehicle: water): 96 % of control
- T/C (endpoint: median tumor weight (est.), dose: 3.12 mg/kg/injection, schedule: Q07DX005 (ip), vehicle: water): 56 % of control
- T/C (endpoint: median tumor weight (est.), dose: 6.25 mg/kg/injection, schedule: Q07DX005 (ip), vehicle: water): 111 % of control

Structure (SMILES): CC[C@@]1(O)C[C@H](OC2CC(N(C)C)C(OC3CC(O)C(OC4CCC(=O)C(C)O4)C(C)O3)C(C)O2)c2c(cc3c(c2O)C(=O)c2c(O)cccc2C3=O)[C@H]1C(=O)OC (stereo partly specified)
- T/C (endpoint: mean tumor weight, dose: 0.75 mg/kg/injection, schedule: Q01DX009 (ip), vehicle: saline): 108 % of control
- T/C (endpoint: mean tumor weight, dose: 1.5 mg/kg/injection, schedule: Q01DX009 (ip), vehicle: saline): 75 % of control
- T/C (endpoint: mean tumor weight, dose: 3.0 mg/kg/injection, schedule: Q01DX009 (ip), vehicle: saline): 35 % of control
- T/C (endpoint: mean tumor weight, dose: 6.0 mg/kg/injection, schedule: Q01DX009 (ip), vehicle: saline): 5 % of control
- T/C (endpoint: median tumor weight (est.), dose: 2.97 mg/kg/injection, schedule: Q07DX005 (ip), vehicle: water): 122 % of control
- T/C (endpoint: median tumor weight (est.), dose: 4.45 mg/kg/injection, schedule: Q07DX005 (ip), vehicle: water): 87 % of control
- T/C (endpoint: median tumor weight (est.), dose: 6.67 mg/kg/injection, schedule: Q07DX005 (ip), vehicle: water): 92 % of control
- T/C (endpoint: median tumor weight (est.), dose: 10.0 mg/kg/injection, schedule: Q07DX005 (ip), vehicle: water): 61 % of control
- T/C (endpoint: median tumor weight (est.), dose: 15.0 mg/kg/injection, schedule: Q07DX005 (ip), vehicle: water): 11 % of control

Structure (SMILES): Nc1c(Cl)c(Cl)nc(C(=O)O)c1Cl
- T/C (endpoint: mean tumor weight, dose: 6.25 mg/kg/injection, schedule: Q01DX015 (ip), vehicle: saline): 114 % of control
- T/C (endpoint: mean tumor weight, dose: 6.25 mg/kg/injection, schedule: Q07DX007 (ip), vehicle: saline): 94 % of control
- T/C (endpoint: mean tumor weight, dose: 12.5 mg/kg/injection, schedule: Q01DX015 (ip), vehicle: saline): 102 % of control
- T/C (endpoint: mean tumor weight, dose: 12.5 mg/kg/injection, schedule: Q07DX007 (ip), vehicle: saline): 102 % of control
- T/C (endpoint: mean tumor weight, dose: 25.0 mg/kg/injection, schedule: Q01DX015 (ip), vehicle: saline): 124 % of control
- T/C (endpoint: mean tumor weight, dose: 25.0 mg/kg/injection, schedule: Q07DX007 (ip), vehicle: saline): 83 % of control
- T/C (endpoint: mean tumor weight, dose: 200.0 mg/kg/injection, schedule: Q07DX006 (ip), vehicle: saline): 64 % of control
- T/C (endpoint: mean tumor weight, dose: 300.0 mg/kg/injection, schedule: Q07DX006 (ip), vehicle: saline): 168 % of control

Structure (SMILES): c1csc(C[N+]23CN4CN(CN(C4)C2)C3)c1
- T/C (endpoint: median tumor weight change, dose: 250.0 mg/kg/injection, schedule: Q01DX001 (ip), vehicle: saline): 80 % of control

Structure (SMILES): Clc1ccc(C2SC=Cc3ccccc32)cc1 (stereo unspecified)
- T/C [3]: 88 % of control
- T/C [4]: 50 % of control and 54 % of control and 58 % of control

Structure (SMILES): CC(=O)NC(CCc1ccc(Cl)c(Cl)c1)c1cccc(O)c(=O)c1 (stereo unspecified)
- T/C (endpoint: median tumor weight change, dose: 31.0 mg/kg/injection, schedule: Q01DX001 (ip), vehicle: Klucel (hydroxypropylcellulose) (HPC)): 114 % of control
- T/C [3]: 99 % of control
- T/C [5]: 165 % of control
- T/C [4]: 88 % of control
- T/C [6]: 88 % of control

Structure (SMILES): C[C@]12C=CC(=O)C=C1CC[C@@H]1[C@@H]2[C@@H](O)C[C@@]2(C)[C@H]1CC[C@]2(O)C(=O)CO
- T/C (endpoint: median tumor weight change, dose: 100.0 mg/kg/injection, schedule: Q01DX001 (ip), vehicle: Klucel (hydroxypropylcellulose) (HPC)): 111 % of control
- T/C (endpoint: median tumor weight change, dose: 200.0 mg/kg/injection, schedule: Q01DX001 (ip), vehicle: Klucel (hydroxypropylcellulose) (HPC)): 67 % of control and 87 % of control and 90 % of control
- T/C (endpoint: median tumor weight change, dose: 800.0 mg/kg/injection, schedule: Q01DX001 (ip), vehicle: Klucel (hydroxypropylcellulose) (HPC)): 32 % of control and 38 % of control and 52 % of control
- T/C (endpoint: median tumor weight change, dose: 1600.0 mg/kg/injection, schedule: Q01DX001 (ip), vehicle: Klucel (hydroxypropylcellulose) (HPC)): 14 % of control

Structure (SMILES): CN(C)C(=O)SC1=C(c2c(Cl)cccc2Cl)C(=O)c2ccccc21
- T/C [5]: 101 % of control and 115 % of control
- T/C [4]: 98 % of control and 109 % of control
- T/C [6]: 113 % of control
- T/C (endpoint: median tumor weight change, dose: 1000.0 mg/kg/injection, schedule: Q01DX001 (ip), vehicle: Klucel (hydroxypropylcellulose) (HPC)): 74 % of control and 75 % of control
- T/C (endpoint: median tumor weight change, dose: 2000.0 mg/kg/injection, schedule: Q01DX001 (ip), vehicle: Klucel (hydroxypropylcellulose) (HPC)): 22 % of control and 38 % of control

Structure (SMILES): COC(=O)Nc1cn2cc(C(=O)c3cccs3)ccc2n1
- T/C (endpoint: median tumor weight change, dose: 62.5 mg/kg/injection, schedule: Q01DX001 (ip), vehicle: Klucel (hydroxypropylcellulose) (HPC)): 99 % of control
- T/C [5]: 71 % of control
- T/C [4]: 69 % of control

Structure (SMILES): COCC(O)Cn1ccnc1[N+](=O)[O-] (stereo unspecified)
- T/C (endpoint: median tumor weight (est.), dose: 8.0 mg/kg/injection, schedule: Q07DX005 (ip), vehicle: Klucel (hydroxypropylcellulose) (HPC)): 101 % of control
- T/C (endpoint: median tumor weight (est.), dose: 8.0 mg/kg/injection, schedule: Q07DX005 (ip), vehicle: saline): 183 % of control
- T/C (endpoint: median tumor weight (est.), dose: 16.0 mg/kg/injection, schedule: Q07DX005 (ip), vehicle: Klucel (hydroxypropylcellulose) (HPC)): 124 % of control
- T/C (endpoint: median tumor weight (est.), dose: 16.0 mg/kg/injection, schedule: Q07DX005 (ip), vehicle: saline): 256 % of control
- T/C (endpoint: median tumor weight (est.), dose: 32.0 mg/kg/injection, schedule: Q07DX005 (ip), vehicle: saline): 256 % of control
- T/C (endpoint: median tumor weight (est.), dose: 64.0 mg/kg/injection, schedule: Q07DX005 (ip), vehicle: Klucel (hydroxypropylcellulose) (HPC)): 74 % of control
- T/C (endpoint: median tumor weight (est.), dose: 64.0 mg/kg/injection, schedule: Q07DX005 (ip), vehicle: saline): 249 % of control
- T/C (endpoint: median tumor weight (est.), dose: 128.0 mg/kg/injection, schedule: Q07DX005 (ip), vehicle: Klucel (hydroxypropylcellulose) (HPC)): 88 % of control
- T/C (endpoint: median tumor weight (est.), dose: 128.0 mg/kg/injection, schedule: Q07DX005 (ip), vehicle: saline): 488 % of control
- T/C (endpoint: median tumor weight (est.), dose: 256.0 mg/kg/injection, schedule: Q07DX005 (ip), vehicle: Klucel (hydroxypropylcellulose) (HPC)): 121 % of control
- T/C (endpoint: median tumor weight (est.), dose: 256.0 mg/kg/injection, schedule: Q07DX005 (ip), vehicle: saline): 108 % of control
